These results are taken from patent publication US20250288682A1, “DEVELOPMENT OF NANO-ENCAPSULATED FATTY-ACYL CONJUGATED COLCHICINE” (priority 2022, published 2025).

For data set [1] the following is noted: for behenic acid conjugated colchicine in plasma: rats, 1 mg/kg. As for the experimental part:
The route of administration and the PK profile for liposomes colchicine were evaluated. The scaled-up formulation of liposomes colchicine, 15 mL, ghost formulation, non-liposomal behenic acid-conjugated colchicine and free colchicine were evaluated to determine the PK profile of liposomes colchicine, as a function of route of administration, intra-peritoneal injection and oral gavage. This preliminary in vivo study is designed to estimate PK parameters of liposomes colchicine and mode of administration of the liposomes. This study was performed using 10 rats divided into 4 groups as specified in FIG. 14. Rats received colchicine or liposomes-colchicine at 1 mg/kg by intra-peritoneal injection or oral gavage. Two and 24 hours after administration, blood was collected for a quantification of plasmatic colchicine and liposomes by liquid chromatography-mass spectrometry (LC-MS/MS). […] All plasma samples were analyzed for colchicine and colchicine-behenic acid conjugate.
LC/MS samples were prepared as per standard plasma extraction protocol.

For data set [2] the following is noted: cited from earlier work.
Another data set concerns HUVEC endothelial cells. The note with it: 24 hour stimulation, 0.1 to 10000 nM.
The subject of data set [3] is microtubules, HUVEC endothelial cells. The note with it: 100 nM, 24 hours.
Experimental: (§1) The efficiency of colchicine to bind microtubules and alter their polymerization was evaluated on HUVEC endothelial cells (FIG. 12) and J774 macrophages (FIG. 13). Cells were plated, respectively, at 5000 and 10000 cells/cm2 three days before colchicine stimulation. […] After 24 hours of stimulation, cells were fixed with paraformaldehyde 4% for 10 minutes. Blocking was performed with 10% normal goat serum with 0.2% Triton X-100. The immunocytometry staining used an α/β-tubulin antibody (#2148, Cell Signaling, 1/100, overnight, +4° C.) followed with a goat anti-rabbit antibody Alexa 555 (#A21429, Invitrogen, 1/200, 1 hour, room temperature). DAPI was used for nuclear staining. Pictures at 20× magnification were taken using AxioVision software SE64 4.9.1 (Zeiss).
Data set [4] deals with microtubules, J774 macrophages. The note with it: 100 nM, 24 hours.
Experimental: as §1
Another data set concerns tubulin. The note with it: cited from earlier work.
The mark [5] stands for this setting: rats treated with behenic acid conjugated colchicine.

Like-named read-outs stand apart in the source and are kept apart here.

`CCCCCCCCCCCCCCCCCCCCCC(=O)OCC(=O)N[C@H]1CCc2cc(OC)c(OC)c(OC)c2-c2ccc(OC)c(=O)cc21` [AI-3-25]: in data set [1] (setting [5]), the colchifoline in plasma result is “found” and the “free colchicine as a metabolite in plasma” value is on record as “not found”. Besides, the “behenic acid conjugated colchicine in plasma” value in data set [1] (IP, 2 hours) is given as “presence”. In addition, the “behenic acid conjugated colchicine in plasma” value in data set [1] (oral gavage) is reported as “diminished levels”.
In the case of `COc1cc2c(c(OC)c1OC)-c1ccc(OC)c(=O)cc1[C@@H](NC(C)=O)CC2` [Colchicine, colchicine], in data set [2], the “log P” value is “about 1.5”. Further, in data set [2] (high solubility and low permeability), the “Biopharmaceutical Classification System class” value is given as “class III”. The “cell viability (MTT)” value in the data set on HUVEC endothelial cells is reported as “decreased cell viability”. The “microtubule polymerization, cell division and cell shape” value in data set [3] was “significantly dysregulated microtubule polymerization, cell division and cell shape”; in data set [4], “significantly dysregulated microtubule polymerization, cell division and cell shape”.
Take `COc1cc2c(c(OC)c1OC)-c1ccc(OC)c(=O)cc1[C@@H](NC(=O)CO)CC2` [colchifoline, N-(2-hydroxyacetyl) colchicine]: in the data set on tubulin, the “tubulin binding compared with colchicine” value is reported as “stronger”.
